Results as given in PubChem BioAssay (NCI).
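Each compound was tested at five concentrations against cells in 96-well plates for 48 hours. At the GI50, growth is halved. TGI is the concentration that stops growth completely.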

How the values were obtained:
Assay in all cases: NCI anticancer screen, dose series, 48 h
[1] = system: 786-0 renal
[2] = system: HCT-116 colon
[3] = system: HOP-92 NSCLC
[4] = system: IGROV1 ovarian
[5] = system: MALME-3M melanoma
[6] = system: OVCAR-8 ovarian
[7] = system: SF-295 CNS
[8] = system: SR leukemia
[9] = system: U251 CNS
[10] = system: DU-145 prostate

Row | Compound | TGI [1] [µM] | TGI [2] [µM] | TGI [3] [µM] | TGI [4] [µM] | TGI [5] [µM] | TGI [6] [µM] | TGI [7] [µM] | TGI [8] [µM] | TGI [9] [µM] | GI50 [1] [µM] | GI50 [10] [µM] | TGI [10] [µM] | GI50 [2] [µM] | GI50 [3] [µM] | GI50 [4] [µM] | GI50 [6] [µM] | GI50 [7] [µM] | GI50 [8] [µM] | GI50 [9] [µM] | GI50 [5] [µM]
1 | CC(C)C(NCc1c2ccccc2nc2ccccc12)C(=O)O (centres undefined) | > 100 | > 100 | 61.9 | > 100 | > 100 | > 100 | > 100 | > 100 | > 100 | – | – | – | – | – | – | – | – | – | – | –
2 | Cc1c(-c2ccnc(N)n2)c2c(n1-c1ccccc1)C(=O)c1ccccc1C2=O | > 100 | > 100 | > 100 | 39 | – | > 100 | 30.7 | 3.84 | 74.9 | 25.6 | 21.1 | 60.7 | 14.3 | > 100 | 4.86 | 17.2 | 14 | 1.01 | 18.9 | –
3 | CCC1C(=O)OCc2c1cc1n(c2=O)Cc2ccccc2-1 (centres undefined) | > 100 | > 100 | > 100 | > 100 | > 100 | > 100 | > 100 | > 100 | – | – | – | – | – | – | – | – | – | – | – | –
4 | CC(C)S(=O)(=O)ON1C(=O)c2ccc([N+](=O)[O-])cc2C1=O | > 100 | > 100 | > 100 | > 100 | > 100 | > 100 | > 100 | > 100 | > 100 | – | – | – | – | – | – | – | – | – | – | –
5 | O=C1CCC(=O)C(C(=O)CCC(=O)Nc2ccc(Cl)cc2)C1 (centres undefined) | > 100 | > 100 | > 100 | > 100 | > 100 | > 100 | > 100 | – | > 100 | – | – | – | – | – | – | – | – | – | – | –
6 | COc1cc2ccc(C(=O)O)cc2cc1OC | > 100 | > 100 | > 100 | > 100 | > 100 | > 100 | > 100 | – | > 100 | – | – | – | – | – | – | – | – | – | – | –
7 | Cc1cccc2c1C(=O)OC2(c1cccc2ccccc12)c1cccc2ccccc12 | > 100 | > 100 | – | > 100 | > 100 | > 100 | > 100 | > 100 | > 100 | – | – | – | – | – | – | – | – | – | – | –
8 | Nc1ccc(Sc2ccc3c4c2cccc4c(=O)n2c4ccccc4nc32)cc1 | 10.4 | 26.7 | – | 32 | 16.9 | 30.9 | 8.01 | 33.1 | 20.6 | 3.34 | 3.8 | 14.1 | 5.05 | – | 3.9 | 5.13 | 2.38 | 1.6 | 4.13 | 3.12
9 | CC(C)N(C(=O)C12C3C4C5C3C1(C(=O)N(C(C)C)C(C)C)C5C42)C(C)C (centres undefined) | > 100 | > 57.8 | > 100 | > 100 | > 100 | > 100 | > 100 | 38.7 | > 100 | – | – | – | – | – | – | – | – | – | – | –
10 | Cc1ccc(/C=C2\CN(C(=O)CCN3CCC(=NO)CC3)C/C(=C\c3ccc(C)cc3)C2=O)cc1 | 3.42 | 1.28 | 4.6 | – | – | – | – | – | – | 1.68 | – | – | 0.363 | 1.86 | – | – | – | – | – | –
11 | COc1ccc(C(=O)C(CN(C)C)c2ccccc2)cc1 (centres undefined) | 3.01 | 1.95 | – | 5.74 | 13.6 | 12.5 | 32.4 | – | 14.8 | 1.62 | – | – | 0.707 | – | 2.18 | 3.46 | 12.6 | – | 4.39 | 3.3
12 | N#CSc1cc(-c2nc3ccccc3o2)ccc1N | 97.4 | > 100 | 64.2 | > 70.1 | – | > 32.5 | > 74.1 | > 100 | 57.3 | 33.4 | > 67.7 | > 100 | 26.5 | 22.4 | 27.2 | 2.79 | 17.1 | 0.203 | 11.8 | –
13 | Nc1ccc(C(=O)N/C(=C\c2ccc3c(c2)OCO3)c2nc3ccc4c(c3[nH]2)C(=O)c2ccccc2C4=O)cc1 | 72.2 | > 100 | 95.7 | > 100 | > 100 | > 100 | > 100 | – | > 100 | – | – | – | – | – | – | – | – | – | – | –
14 | CN(C)/C=C/C(=O)c1cccc(C(=O)/C=C/N(C)C)n1 | > 100 | > 100 | > 100 | > 100 | > 100 | > 100 | > 100 | > 100 | > 100 | – | – | – | – | – | – | – | – | – | – | –
15 | O=C(/C=C/c1ccc(OCCCOc2ccc(/C=C/C(=O)c3ccc(Cl)cc3)cc2)cc1)c1ccc(Cl)cc1 | > 100 | > 100 | > 100 | > 100 | > 100 | > 100 | > 100 | > 100 | > 100 | – | – | – | – | – | – | – | – | – | – | –
16 | COc1cccc(C2N3CCCCC3[C@@H]3c4[nH]c5ccccc5c4CCN23)c1OC (some centres undefined) | 32.4 | 31.1 | 31.6 | 34.7 | – | 30.8 | 31.6 | – | 30.9 | – | – | – | – | – | – | – | – | – | – | –
17 | CCC(C)Cn1c(C)nc2c1C(=O)c1ccccc1C2=O (centres undefined) | 75.4 | – | 78.9 | > 100 | 73.7 | > 100 | > 100 | > 100 | > 100 | – | – | – | – | – | – | – | – | – | – | –
18 | Cc1nc(=O)n2c(c1C(=O)Nc1ccc(Cl)cc1)NCCC2 | > 100 | > 100 | > 100 | > 100 | > 100 | > 100 | > 100 | > 100 | > 100 | – | – | – | – | – | – | – | – | – | – | –
19 | O=C1/C(=C/c2ccc(Cl)cc2)COc2ccc(Br)cc21 | > 100 | > 100 | > 100 | > 100 | > 100 | > 100 | > 100 | – | > 100 | – | – | – | – | – | – | – | – | – | – | –
20 | C=CCN1C(=O)C/C(=C2/CCC(=O)N2CC=C)C1=O | > 100 | > 100 | > 100 | > 100 | > 100 | > 100 | > 100 | > 100 | > 100 | – | – | – | – | – | – | – | – | – | – | –
21 | C/C(=N/OCCC(=O)O)C1CC1 | > 100 | > 100 | > 100 | > 100 | > 100 | > 100 | > 100 | > 100 | > 100 | – | – | – | – | – | – | – | – | – | – | –
